Columns and labels:
[1] = tested on: MC-38 transplanted tumors; experiment: Animal pharmacodynamics experiment: MC-38 transplanted tumors in C57 mice; format: in vivo; conditions: 2 weeks; for inhibition in vivo at 30 mg/kg: Mus musculus, MC-38, po, 336 h, compound alone, 30 mg/kg intragastrically daily, read-out: inhibition ratio (tumor size, MC-38 transplanted tumors); for inhibition ratio (tumor size, MC-38 transplanted tumors): compound 30 mg/kg intragastrically daily + anti-PD1 10 mg/kg i.p. once every 3 days
Protocol: Example 55: Animal Pharmacodynamics Experiment
In this study. MC-38 cell lines were inoculated in C57 mice
Experimental animal: C57 mice, male, 5-6 weeks old (18-22 g)
Inoculation: 2×10^6/0.1 mL, Matrigel is added in 3:1 ratio
PD1: InVivoMAb anti-mouse PD-1 (CD279). BioXCell
Group: On day 4 after inoculating, all the mice were divided into 13 groups, respectively model group, the anti-PD1 2 mg/kg group, anti-PD110 mg/kg group, testing compounds alone, and the tested compound combine with anti-PD1 10 mg/kg. Compounds were intragastrically administered daily at a dose of 30 mg/kg and anti-PD1 was intraperitoneally injected once every 3 days. The drug was administered continuously for 2 weeks. In model group, 80% glycerol+20% CMC-Na was given daily.
Results: The experimental results of anti-PD1 combined with the compounds prepared in the representative example 3-52 on the inhibition of tumor size of MC-38 transplanted tumors are as follows: […]

CSF-1R = biological target: T1, CSF-1R (Homo sapiens, UniProt P07333); experiment: CSF-1R kinase assay (HTRF kinEASE TK); format: biochemical; conditions: ATP 2.5 uM, enzyme 0.012 ng/ul, read-out: In vitro inhibitory activity of CSF-1R IC50
T1 construct: purchased Invitrogen PV3249
T1 sequence (P07333 20-972): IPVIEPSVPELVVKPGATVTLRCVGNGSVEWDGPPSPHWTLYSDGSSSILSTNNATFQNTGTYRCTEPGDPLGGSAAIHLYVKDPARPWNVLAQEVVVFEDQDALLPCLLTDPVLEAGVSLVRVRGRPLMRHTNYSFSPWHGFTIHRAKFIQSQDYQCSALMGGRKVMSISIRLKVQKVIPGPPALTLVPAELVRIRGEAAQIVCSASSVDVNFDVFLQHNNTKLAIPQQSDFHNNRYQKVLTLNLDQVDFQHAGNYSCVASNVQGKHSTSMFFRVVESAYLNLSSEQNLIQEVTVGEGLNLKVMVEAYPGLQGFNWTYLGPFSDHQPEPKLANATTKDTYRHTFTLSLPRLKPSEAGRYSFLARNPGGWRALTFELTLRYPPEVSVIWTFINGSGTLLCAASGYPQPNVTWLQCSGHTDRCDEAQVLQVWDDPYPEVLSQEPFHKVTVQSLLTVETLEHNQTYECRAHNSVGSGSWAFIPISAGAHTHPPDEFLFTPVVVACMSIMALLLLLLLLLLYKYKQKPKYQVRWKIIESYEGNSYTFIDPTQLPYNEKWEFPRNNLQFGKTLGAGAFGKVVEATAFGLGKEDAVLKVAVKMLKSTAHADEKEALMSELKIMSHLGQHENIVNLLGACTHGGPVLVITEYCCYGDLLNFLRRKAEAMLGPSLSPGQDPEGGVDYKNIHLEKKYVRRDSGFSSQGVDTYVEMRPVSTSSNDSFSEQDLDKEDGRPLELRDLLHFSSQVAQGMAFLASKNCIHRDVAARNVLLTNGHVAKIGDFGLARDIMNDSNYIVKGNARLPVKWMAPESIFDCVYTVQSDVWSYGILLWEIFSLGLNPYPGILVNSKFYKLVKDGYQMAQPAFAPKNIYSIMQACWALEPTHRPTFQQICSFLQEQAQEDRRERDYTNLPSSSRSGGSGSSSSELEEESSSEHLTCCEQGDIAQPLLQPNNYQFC
Protocol: Example 53: CSF-1R Kinase Assay
I. Materials and Instruments
• 2104 EnVision® Multilabel Reader (PerkinElmer) • OptiPlate-384, White Opaque 384-well MicroPlate (Cat.6007290, PerkinElmer) • HTRF kinEASE TK (Cat.62TKOPEC, Cisbio) • CSF-1R(Cat. PV3249, Invitrogen) • ATP 10 mM (Cat. PV3227, Invitrogen) • DTT 1 M (Cat. D5545, Sigma) • MgCl2 1 M (Cat. M8266, Sigma) • MnCl2 1 M (Cat.244589. Sigma)
II. Experimental Procedure
Substrate-TK and ATP were diluted to 5 times of the reaction concentration by 1×Kinase Buffer. CSF1R enzyme was diluted to 5×enzyme solution by 1×kinase buffer. Sa-XL665 was diluted to 4×Sa-XL665 solution by Detection Buffer. 100×TK-Ab-Cryptate Solution TK-Ab-Cryptate was diluted to 100×TK-Ab-Cryptate solution by Detection Buffer. 2. Experimental Procedure After all reagents had been prepared according to the above method, except enzymes, the sample was added after equilibrium to room temperature. • a. Firstly, 2.5% DMSO solution was prepared by using 1×kinase buffer (the high concentration of DMSO will affect the reaction and control the final concentration of DMSO to 1%). Then the compounds were diluted by 2.5% DMSO solution corresponding to the enzyme. The screening concentration of the compounds was 4 times gradient dilution from 1000 nM, and 8 concentrations. In addition to the control pore, 4 microlitres of diluted solution containing 2.5% DMSO were added to the reaction pore and 4 microlitres of previously prepared solution containing 2.5% DMSO were added to the control pore. • b. 2 microlitres of previously prepared TK-biotin substrate solution was added to all reaction pore (the amount of substrate used for enzyme screening is shown in Table 15). • c. Adding 2 microlitres of CSF1R enzyme solution of corresponding concentration (the amount of enzyme is shown in Table 15) to all reaction pore except negative pore. The negative pore is supplemented with 2 microlitres of enzyme corresponding to 1 xkinase buffer. After mixing, the compound and enzyme can be fully combined by incubating at room temperature for 10 minutes. • d. Enzyme reaction was initiated by adding 2 microlitres ATP solution of corresponding concentration to all reaction pore. The reaction time was 30 minutes (the corresponding ATP concentration and reaction time at enzyme screening were shown in Table 15). • e. Preparing the test solution 5 minutes before the end of kinase reaction. Streptavidin-XL665 and TK antibody europium cryptate (1:100) were prepared with detection buffer in the kit (the corresponding concentration of detection reagent for enzyme screening is shown in Table 15). • f. After the kinase reaction, 5 microlitres of diluted Streptavidin-XL665 were added to all reaction pore, mixing, and then the diluted TK antibody europium cryptate solution was added immediately. • g. After 1 hour reaction at room temperature, the fluorescence signals (320 nm stimulation, 665 nm, 615 nm emission) were detected by ENVISION (Perkinelmer) instrument. The inhibition rate of each pore was calculated by full active pore and background signal pore, and the average value of complex pore was obtained. Meanwhile, the half inhibitory activity (IC50) of each compound was fitted by professional drawing analysis software PRISM 5.0. The Flow Chart of the Experiment is as Follows:
3. Data Analysis Emission Ratio (ER)=665 nm Emission signal/615 nm Emission signal Inhibitory rate=(ERpositive−ERsample)/(ERpositive−ERnegative)*100% Using Graphpad Prism 5 and log (inhibitor) vs. normalized response to fit IC50 curve and calculate IC50 value. The IC50 data of the compounds prepared in Representative Examples 3-52 are as follows (Table 18): […]

NFS-60 cells = experiment: NFS-60 cell assay (CCK proliferation, M-CSF stimulated); format: cell-based; conditions: Mus musculus, compound 0.5 uM, 72 h, 40 ng/mL M-CSF, read-out: inhibition ratio % (NFS-60 cell proliferation)
Protocol: Example 54: NFS-60 Cell Assay
1. Experimental Materials
Mouse Myelogenous Leukemia Cells (NFS-60)
Using DMSO to dissolve, and the required concentration was prepared with full culture medium without factors.
Penicillin-streptomycin: TRANS
Mouse M-CSF/CSF-1 Protein: Sino Biological Inc, No. 51112-MNAH
M-CSF: Qilu Pharmaceutical co., Ltd.
The logarithmic growth phase of NFS-60 cells (1640+10% FBS+40 ng/ml M-CSF+1% Penicillin-streptomycin) were centrifuged (1000 r/min) and cultured in a factor-free medium at 37° C., 5% CO2 for 24 hours. Centrifugating (1000 r/min), the culture medium was replaced by new culture medium including 40 ng/mL factors, and inoculated on 96-well plate by 2*10^4 cells/mL, 100 μL/hole. After 16 hours, the tested compounds were added 10 μL/hole, 3 duplicate holes per compound, 37° C., 5% CO2, continue to cultured for 72 h. Then 10 μL CCK reagent was added to each hole. After incubation for 4 hours, the absorbance of each hole was measured at 450 nm wavelength. According to Formula: Inhibitory rate (%)=(1-OD value of test pore/OD value of solvent control pore)×100% 3. Experimental Results The experimental results of the inhibition of NFS-60 cell proliferation by the compounds prepared in Example 3-52, 0.5 uM, are shown in the following table: […]

IC50 (CSF-1R) [nM]	SMILES	inhibition in vivo at 30 mg/kg [1] [%]	inhibition ratio (tumor size, MC-38 transplanted tumors) [1]	inhibition at 0.5 µM (NFS-60 cells) [%]
≤ 50	C[C@@H](Oc1cc(-c2cnn(C)c2)cnc1N)c1cccc(NC(=O)c2cccc(N(C)C)c2)c1 [Compound 178, (R)-N-(3-(1-((2-amino-5-(1-methyl-1H-pyrazol-4-yl)pyridin-3-yl)oxy)ethyl)phenyl)-3-(dimethylamino)benzamide]	10 to 30	+++ (+++: ≥30%)	≥ 50
≤ 50	Cc1ccc(C(=O)Nc2cccc([C@@H](C)Oc3cc(-c4cnn(C)c4)cnc3N)c2)cc1N(C)C [Compound 179, (R)-N-(3-(1-((2-amino-5-(1-methyl-1H-pyrazol-4-yl)pyridin-3-yl)oxy)ethyl)phenyl)-3-(dimethylamino)-4-methylbenzamide]	10 to 30	+++ (+++: ≥30%)	≥ 50
≤ 50	CSc1cc(C(=O)Nc2cccc([C@@H](C)Oc3cc(-c4cnn(C)c4)cnc3N)c2)ccc1C [Compound 182, (R)-N-(3-(1-((2-amino-5-(1-methyl-1H-pyrazol-4-yl)pyridin-3-yl)oxy)ethyl)phenyl)-4-methyl-3-(methylthio)benzamide]	10 to 30	+++ (+++: ≥30%)	≥ 50
≤ 50	C[C@@H](Oc1cc(Cl)cnc1N)c1cccc(NC(=O)c2cccc(S(C)(=O)=O)c2)c1 [Compound 78, (R)-N-(3-(1-((2-amino-5-chloropyridin-3-yl)oxy)ethyl)-phenyl)-3-(methylsulfonyl)-benzamide]	< 10	++ (++: 10%-30%)	
≤ 50	C[C@@H](Oc1cc(Cl)cnc1N)c1cccc(NC(=O)c2cccc(C3CC3)c2)c1 [Compound 86, (R)-N-(3-(1-((2-amino-5-chloropyridin-3-yl)oxy)ethyl)-phenyl)-3-cyclopropylbenzamide]	< 10	+++ (+++: ≥30%)	
≤ 50	Cc1cccc(C(=O)Nc2cccc([C@@H](C)Oc3cc(Cl)cnc3N)c2)c1 [Compound 72, (R)-N-(3-(1-((2-amino-5-chloropyridin-3-yl)oxy)ethyl)-phenyl)-3-methylbenzamide]	< 10	++ (++: 10%-30%)	≥ 50
